Experimental data published in ChEMBL document CHEMBL3352297, “Structure based virtual screening of MDPI database: discovery of structurally diverse and novel DPP-IV inhibitors” (Bioorg Med Chem Lett, 2014).
Calls of active or inactive are those of the source. No cut-off for these calls is given here.

Columns and labels:
[1] = system: Rattus norvegicus; assay: Suppression of blood glucose level in Wistar rat at 30 mg/kg, po measured 30 to 120 mins post dextrose challenge by oral glucose tolerance test; format: functional, organism-based; parameters: dose 30 mg/kg
[2] = target: Dipeptidyl peptidase 4 (Homo sapiens, UniProt P27487); assay: Inhibition of human DPP-4 using H-Gly-Pro-para-Nitroanilide as substrate incubated for 20 mins prior to substrate addition measured after 30 mins by spectrophotometry
Dipeptidyl peptidase 4, sequence (P27487 whole entry): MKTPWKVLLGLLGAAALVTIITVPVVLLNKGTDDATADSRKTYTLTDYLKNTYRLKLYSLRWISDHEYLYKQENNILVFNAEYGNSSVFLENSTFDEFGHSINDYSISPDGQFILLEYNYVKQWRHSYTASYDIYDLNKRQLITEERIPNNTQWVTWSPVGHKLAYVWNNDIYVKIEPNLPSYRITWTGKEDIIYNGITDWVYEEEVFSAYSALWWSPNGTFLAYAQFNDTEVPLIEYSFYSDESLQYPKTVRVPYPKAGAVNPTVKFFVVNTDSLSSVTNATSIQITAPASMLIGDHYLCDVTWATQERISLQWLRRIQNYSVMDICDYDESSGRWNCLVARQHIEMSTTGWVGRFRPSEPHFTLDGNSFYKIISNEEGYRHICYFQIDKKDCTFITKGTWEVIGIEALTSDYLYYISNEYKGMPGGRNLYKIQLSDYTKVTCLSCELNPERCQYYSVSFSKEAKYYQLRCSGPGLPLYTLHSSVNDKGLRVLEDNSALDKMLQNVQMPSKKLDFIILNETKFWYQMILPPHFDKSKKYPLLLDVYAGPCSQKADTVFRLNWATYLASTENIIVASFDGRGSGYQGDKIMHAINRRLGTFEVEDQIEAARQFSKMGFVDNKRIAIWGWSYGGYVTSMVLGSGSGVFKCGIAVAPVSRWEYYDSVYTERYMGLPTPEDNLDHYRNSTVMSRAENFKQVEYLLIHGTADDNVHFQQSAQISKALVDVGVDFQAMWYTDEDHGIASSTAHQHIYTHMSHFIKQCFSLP

Compound	IC50 ([2]; read-out: IC50) [nM]	IC50 [2]	Activity [1]
2,2-diphenylethanaminium tetrachloroaurate	–	–	Active
Cc1ccc(=N)n(Cc2cccc(F)c2)c1	34600	–	–

Second part, led by results:

IC50 ([2]; read-out: IC50) [nM]	IC50 [2]	Compound	Activity [1]
730	–	Cn1c(=O)c(C(C)(NN)Nc2ccccc2)c(O)c2ccccc21 (stereo not drawn)	Active
2950	–	CCn1c(=O)c(C(C)(NN)Nc2ccc(C)cc2)c(O)c2ccccc21 (stereo not drawn)	Active
–	ND(Insoluble)	CN(C)c1ccc(C(N)CC(=O)c2c(O)c3ccccc3n(C)c2=O)cc1 (stereo not drawn)	–
> 100000	–	N=CC(C(=O)c1ccccc1)c1ccccc1 (stereo not drawn)	–
